Reference: article PMC11859184, “Synthesis and Evaluation of ^68Ga- and ^177Lu-Labeled [diF-Pro^14]Bombesin(6−14) Analogs for Detection and Radioligand Therapy of Gastrin-Releasing Peptide Receptor-Expressing Cancer” (Pharmaceuticals, 2025)
Like-named read-outs stand apart in the source and are kept apart here.

Assay: Ex vivo biodistribution of 68Ga-labeled tracers in PC-3 tumor-bearing mice
Details: mouse, 1 h pi; for tissue to tissue ratio at 1 h: male, NOD.Cg-Rag1^tm1Mom Il2rg^tm1Wjl/SzJ (NRG), iv, total radioactivity; for tissue uptake at 1 h: intravenous
Protocol: PET/CT imaging and biodistribution studies were conducted using male NOD.Cg-Rag1^tm1Mom Il2rg^tm1Wjl/SzJ (NRG) mice following previously published procedures. The studies were carried out in compliance with the guidelines established by the Canadian Council on Animal Care and approved by Animal Ethics Committee of the University of British Columbia (protocol number A20-0113, approved on 30 September 2022). The mice were anaesthetized and subcutaneously implanted with 5 × 10^6 PC-3 cells (100 µL; 1:1 PBS/Matrigel) behind the left shoulder. PET/CT imaging and biodistribution studies were performed once the tumors reached a diameter of 5–8 mm, typically after approximately 4 weeks of growth.
For ex vivo biodistribution studies, the mice were injected with the ^68Ga-labeled tracer (2–4 MBq) via a lateral caudal tail vein. For blocking [^68Ga]Ga-LW02060, the mice were co-injected with 100 μg of [D-Phe^6,Leu-NHEt^13,des-Met^14]Bombesin(6–14). For blocking [^68Ga]Ga-LW02080, the mice were co-injected with 100 μg of its nonradioactive standard Ga-LW02080. At 1 h pi, the mice were euthanized by CO2 inhalation. Blood and organs/tissues of interest were collected, weighed, and counted using a gamma counter.

[1] = tumor/blood, blocked (100 µg blocking agent co-injected), read-out: Tumor/blood uptake ratio
[2] = tumor/blood, n = 4, read-out: Tumor/blood uptake ratio
[3] = tumor/bone, blocked (100 µg blocking agent co-injected), read-out: Tumor/bone uptake ratio
[4] = tumor/bone, n = 4, read-out: Tumor/bone uptake ratio
[5] = tumor/kidney, blocked (100 µg blocking agent co-injected), read-out: Tumor/kidney uptake ratio
[6] = tumor/kidney, n = 4, read-out: Tumor/kidney uptake ratio
[7] = tumor/muscle, blocked (100 µg blocking agent co-injected), read-out: Tumor/muscle uptake ratio
[8] = tumor/muscle, n = 4, read-out: Tumor/muscle uptake ratio
[9] = tumor/pancreas, blocked (100 µg blocking agent co-injected), read-out: Tumor/pancreas uptake ratio
[10] = tumor/pancreas, n = 4, read-out: Tumor/pancreas uptake ratio
[11] = PC-3 tumor, 100 ug, blocked (100 µg blocking agent co-injected), read-out: PC-3 tumor uptake
[12] = PC-3 tumor, n = 4, read-out: PC-3 tumor uptake
[13] = adrenal glands, 100 ug, blocked (100 µg blocking agent co-injected), read-out: Adrenal glands uptake
[14] = adrenal glands, n = 4, read-out: Adrenal glands uptake
[15] = blood, 100 ug, blocked (100 µg blocking agent co-injected), read-out: Blood uptake
[16] = blood, n = 4, read-out: Blood uptake
[17] = bone, 100 ug, blocked (100 µg blocking agent co-injected), read-out: Bone uptake
[18] = bone, n = 4, read-out: Bone uptake
[19] = brain, 100 ug, blocked (100 µg blocking agent co-injected), read-out: Brain uptake
[20] = brain, n = 4, read-out: Brain uptake
[21] = fat, 100 ug, blocked (100 µg blocking agent co-injected), read-out: Fat uptake
[22] = fat, n = 4, read-out: Fat uptake
[23] = heart, 100 ug, blocked (100 µg blocking agent co-injected), read-out: Heart uptake
[24] = heart, n = 4, read-out: Heart uptake
[25] = kidneys, 100 ug, blocked (100 µg blocking agent co-injected), read-out: Kidneys uptake
[26] = kidneys, n = 4, read-out: Kidneys uptake
[27] = large intestine, 100 ug, blocked (100 µg blocking agent co-injected), read-out: Large intestine uptake
[28] = large intestine, n = 4, read-out: Large intestine uptake
[29] = liver, 100 ug, blocked (100 µg blocking agent co-injected), read-out: Liver uptake
[30] = liver, n = 4, read-out: Liver uptake
[31] = lungs, 100 ug, blocked (100 µg blocking agent co-injected), read-out: Lungs uptake
[32] = lungs, n = 4, read-out: Lungs uptake
[33] = muscle, 100 ug, blocked (100 µg blocking agent co-injected), read-out: Muscle uptake
[34] = muscle, n = 4, read-out: Muscle uptake
[35] = pancreas, 100 ug, blocked (100 µg blocking agent co-injected), read-out: Pancreas uptake
[36] = pancreas, n = 4, read-out: Pancreas uptake
[37] = small intestine, 100 ug, blocked (100 µg blocking agent co-injected), read-out: Small intestine uptake
[38] = small intestine, n = 4, read-out: Small intestine uptake
[39] = spleen, 100 ug, blocked (100 µg blocking agent co-injected), read-out: Spleen uptake
[40] = spleen, n = 4, read-out: Spleen uptake
[41] = stomach, 100 ug, blocked (100 µg blocking agent co-injected), read-out: Stomach uptake
[42] = stomach, n = 4, read-out: Stomach uptake
[43] = testes, 100 ug, blocked (100 µg blocking agent co-injected), read-out: Testes uptake
[44] = testes, n = 4, read-out: Testes uptake

## CC(C)C[C@H](NC(=O)[C@H](Cc1cnc[nH]1)N(C)C(=O)CNC(=O)[C@@H](NC(=O)[C@H](C)NC(=O)[C@H](Cc1c[nH]c2ccccc12)NC(=O)[C@H](CCC(N)=O)NC(=O)[C@@H](Cc1ccccc1)NC(=O)CN1CCC(NC(=O)CN2CCN(CC(=O)O)CCN(CC(=O)O)CCN(CC(=O)O)CC2)CC1)C(C)(C)C)C(=O)N1CC(F)(F)C[C@H]1C(N)=O [[^68Ga]Ga-LW02060, metal not drawn]
[1]
  tissue to tissue ratio at 1 h: 3.72 ± 0.74
[2]
  tissue to tissue ratio at 1 h: 29.1 ± 3.62
[3]
  tissue to tissue ratio at 1 h: 22.3 ± 8.24
[4]
  tissue to tissue ratio at 1 h: 179 ± 46.9
[5]
  tissue to tissue ratio at 1 h: 0.54 ± 0.03
[6]
  tissue to tissue ratio at 1 h: 4.86 ± 0.76
[7]
  tissue to tissue ratio at 1 h: 17.7 ± 3.85
[8]
  tissue to tissue ratio at 1 h: 141 ± 19
[9]
  tissue to tissue ratio at 1 h: 2.87 ± 0.84
[10]
  tissue to tissue ratio at 1 h: 5.52 ± 0.78
[11]
  tissue uptake at 1 h: 6.11 ± 0.42 %ID/g
[12]
  tissue uptake at 1 h: 16.8 ± 2.7 %ID/g
[13]
  tissue uptake at 1 h: 0.67 ± 0.03 %ID/g
[14]
  tissue uptake at 1 h: 0.66 ± 0.16 %ID/g
[15]
  tissue uptake at 1 h: 1.71 ± 0.44 %ID/g
[16]
  tissue uptake at 1 h: 0.54 ± 0.03 %ID/g
[17]
  tissue uptake at 1 h: 0.29 ± 0.07 %ID/g
[18]
  tissue uptake at 1 h: 0.1 ± 0.04 %ID/g
[19]
  tissue uptake at 1 h: 0.05 ± 0.01 %ID/g
[20]
  tissue uptake at 1 h: 0.02 ± 0.01 %ID/g
[21]
  tissue uptake at 1 h: 0.27 ± 0.1 %ID/g
[22]
  tissue uptake at 1 h: 0.05 ± 0.02 %ID/g
[23]
  tissue uptake at 1 h: 0.52 ± 0.14 %ID/g
[24]
  tissue uptake at 1 h: 0.2 ± 0.05 %ID/g
[25]
  tissue uptake at 1 h: 11.3 ± 0.97 %ID/g
[26]
  tissue uptake at 1 h: 3.58 ± 1.14 %ID/g
[27]
  tissue uptake at 1 h: 0.54 ± 0.13 %ID/g
[28]
  tissue uptake at 1 h: 0.61 ± 0.1 %ID/g
[29]
  tissue uptake at 1 h: 1.11 ± 0.43 %ID/g
[30]
  tissue uptake at 1 h: 0.37 ± 0.08 %ID/g
[31]
  tissue uptake at 1 h: 1.52 ± 0.39 %ID/g
[32]
  tissue uptake at 1 h: 0.61 ± 0.15 %ID/g
[33]
  tissue uptake at 1 h: 0.35 ± 0.08 %ID/g
[34]
  tissue uptake at 1 h: 0.12 ± 0.03 %ID/g
[35]
  tissue uptake at 1 h: 2.25 ± 0.59 %ID/g
[36]
  tissue uptake at 1 h: 3.12 ± 0.89 %ID/g
[37]
  tissue uptake at 1 h: 0.72 ± 0.02 %ID/g
[38]
  tissue uptake at 1 h: 0.96 ± 0.2 %ID/g
[39]
  tissue uptake at 1 h: 0.53 ± 0.15 %ID/g
[40]
  tissue uptake at 1 h: 0.24 ± 0.1 %ID/g
[41]
  tissue uptake at 1 h: 0.38 ± 0.06 %ID/g
[42]
  tissue uptake at 1 h: 0.77 ± 0.29 %ID/g
[43]
  tissue uptake at 1 h: 0.76 ± 0.29 %ID/g
[44]
  tissue uptake at 1 h: 0.2 ± 0.06 %ID/g

## CC(C)C[C@@H](CN1CC(F)(F)C[C@H]1C(N)=O)NC(=O)[C@H](Cc1c[nH]cn1)NC(=O)CN(C)C(=O)[C@@H](NC(=O)[C@H](C)NC(=O)[C@H](Cc1c[nH]c2ccccc12)NC(=O)[C@H](CCC(N)=O)NC(=O)[C@@H](Cc1ccccc1)NC(=O)CN1CCC(NC(=O)CN2CCN(CC(=O)O)CCN(CC(=O)O)CCN(CC(=O)O)CC2)CC1)C(C)C [[^68Ga]Ga-LW02080, metal not drawn]
[1]
  tissue to tissue ratio at 1 h: 0.87 ± 0.15
[2]
  tissue to tissue ratio at 1 h: 22.7 ± 4.13
[3]
  tissue to tissue ratio at 1 h: 5.52 ± 0.68
[4]
  tissue to tissue ratio at 1 h: 69.8 ± 13.7
[5]
  tissue to tissue ratio at 1 h: 0.14 ± 0.03
[6]
  tissue to tissue ratio at 1 h: 3.18 ± 0.75
[7]
  tissue to tissue ratio at 1 h: 3.61 ± 0.14
[8]
  tissue to tissue ratio at 1 h: 117 ± 18.6
[9]
  tissue to tissue ratio at 1 h: 3.47 ± 0.64
[10]
  tissue to tissue ratio at 1 h: 18.4 ± 2.86
[11]
  tissue uptake at 1 h: 1.71 ± 0.39 %ID/g
[12]
  tissue uptake at 1 h: 7.36 ± 1.33 %ID/g
[13]
  tissue uptake at 1 h: 0.69 ± 0.05 %ID/g
[14]
  tissue uptake at 1 h: 0.39 %ID/g
[15]
  tissue uptake at 1 h: 2.02 ± 0.7 %ID/g
[16]
  tissue uptake at 1 h: 0.33 ± 0.08 %ID/g
[17]
  tissue uptake at 1 h: 0.31 ± 0.06 %ID/g
[18]
  tissue uptake at 1 h: 0.11 ± 0.02 %ID/g
[19]
  tissue uptake at 1 h: 0.06 ± 0.03 %ID/g
[20]
  tissue uptake at 1 h: 0.01 %ID/g
[21]
  tissue uptake at 1 h: 0.25 ± 0.04 %ID/g
[22]
  tissue uptake at 1 h: 0.03 ± 0.01 %ID/g
[23]
  tissue uptake at 1 h: 0.66 ± 0.18 %ID/g
[24]
  tissue uptake at 1 h: 0.11 ± 0.03 %ID/g
[25]
  tissue uptake at 1 h: 11.2 ± 1.02 %ID/g
[26]
  tissue uptake at 1 h: 2.42 ± 0.81 %ID/g
[27]
  tissue uptake at 1 h: 0.33 ± 0.1 %ID/g
[28]
  tissue uptake at 1 h: 0.3 ± 0.09 %ID/g
[29]
  tissue uptake at 1 h: 1.05 ± 0.39 %ID/g
[30]
  tissue uptake at 1 h: 0.31 ± 0.07 %ID/g
[31]
  tissue uptake at 1 h: 1.52 ± 0.44 %ID/g
[32]
  tissue uptake at 1 h: 0.28 ± 0.05 %ID/g
[33]
  tissue uptake at 1 h: 0.53 ± 0.06 %ID/g
[34]
  tissue uptake at 1 h: 0.06 ± 0.02 %ID/g
[35]
  tissue uptake at 1 h: 0.51 ± 0.18 %ID/g
[36]
  tissue uptake at 1 h: 0.38 ± 0.04 %ID/g
[37]
  tissue uptake at 1 h: 1.04 ± 0.48 %ID/g
[38]
  tissue uptake at 1 h: 0.24 ± 0.07 %ID/g
[39]
  tissue uptake at 1 h: 0.56 ± 0.17 %ID/g
[40]
  tissue uptake at 1 h: 0.18 ± 0.05 %ID/g
[41]
  tissue uptake at 1 h: 0.38 ± 0.2 %ID/g
[42]
  tissue uptake at 1 h: 0.08 ± 0.04 %ID/g
[43]
  tissue uptake at 1 h: 0.63 ± 0.2 %ID/g
[44]
  tissue uptake at 1 h: 0.12 ± 0.03 %ID/g
